# Experimental data from patent publication US12421252B2, “Spiro (isobenzofuranazetidine) compounds for the treatment of autoimmune disease” (Hoffmann-La Roche Inc., priority 2020, dated 2025).
# Experiments:
# human TLR7 = molecular target: T1, human TLR7 (Homo sapiens, UniProt Q9NYK1); assay: HEK293-Blue-hTLR-7 cells assay; assay type: cell-based; details: HEK293-Blue-hTLR7 cells, R848 stimulation, 20 hrs, SEAP reporter; read-out: HEK/hTLR7 IC50
# T1 sequence (Q9NYK1 27-1049): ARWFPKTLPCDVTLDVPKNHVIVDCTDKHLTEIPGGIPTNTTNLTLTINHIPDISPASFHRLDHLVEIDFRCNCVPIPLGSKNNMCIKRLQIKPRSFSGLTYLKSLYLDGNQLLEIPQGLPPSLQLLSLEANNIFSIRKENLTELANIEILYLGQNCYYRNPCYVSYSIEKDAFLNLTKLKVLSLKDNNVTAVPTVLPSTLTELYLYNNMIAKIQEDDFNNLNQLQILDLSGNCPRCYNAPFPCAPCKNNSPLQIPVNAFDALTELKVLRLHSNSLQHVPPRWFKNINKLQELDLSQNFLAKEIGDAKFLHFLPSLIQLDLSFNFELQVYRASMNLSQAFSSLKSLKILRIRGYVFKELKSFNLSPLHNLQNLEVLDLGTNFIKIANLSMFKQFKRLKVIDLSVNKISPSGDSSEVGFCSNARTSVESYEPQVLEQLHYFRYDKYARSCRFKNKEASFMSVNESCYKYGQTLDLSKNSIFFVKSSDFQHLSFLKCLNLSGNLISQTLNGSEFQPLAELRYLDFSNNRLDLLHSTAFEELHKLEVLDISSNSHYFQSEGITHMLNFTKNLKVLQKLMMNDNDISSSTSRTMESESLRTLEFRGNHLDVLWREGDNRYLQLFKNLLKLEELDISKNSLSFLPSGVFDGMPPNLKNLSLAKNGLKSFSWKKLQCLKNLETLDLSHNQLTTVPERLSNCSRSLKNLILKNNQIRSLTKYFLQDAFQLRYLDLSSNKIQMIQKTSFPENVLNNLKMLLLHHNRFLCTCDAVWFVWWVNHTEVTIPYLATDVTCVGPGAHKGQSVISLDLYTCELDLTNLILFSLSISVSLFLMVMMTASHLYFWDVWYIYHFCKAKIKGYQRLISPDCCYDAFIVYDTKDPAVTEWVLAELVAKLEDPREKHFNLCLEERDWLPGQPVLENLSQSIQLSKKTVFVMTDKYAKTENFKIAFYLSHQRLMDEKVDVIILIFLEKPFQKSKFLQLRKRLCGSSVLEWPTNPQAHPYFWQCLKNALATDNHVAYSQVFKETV
# Text: HEK293-Blue-hTLR-7 cells assay:
# A stable HEK293-Blue-hTLR-7 cell line was purchased from InvivoGen (Cat. #: hkb-htlr7, San Diego, California, USA). These cells were originally designed for studying the stimulation of human TLR7 by monitoring the activation of NF-κB. A SEAP (secreted embryonic alkaline phosphatase) reporter gene was placed under the control of the IFN-β minimal promoter fused to five NF-κB and AP-1-binding sites. The SEAP was induced by activating NF-κB and AP-1 via stimulating HEK-Blue hTLR7 cells with TLR7 ligands. Therefore the reporter expression was declined by TLR7 antagonist under the stimulation of a ligand, such as R848 (Resiquimod), for incubation of 20 hrs. The cell culture supernatant SEAP reporter activity was determined using QUANTI-Blue™ kit (Cat. #: rep-qb1, Invivogen, San Diego, Ca, USA) at a wavelength of 640 nm, a detection medium that turns purple or blue in the presence of alkaline phosphatase.
# HEK293-Blue-hTLR7 cells were incubated at a density of 250,000˜450,000 cells/mL in a volume of 170 μL in a 96-well plate in Dulbecco's Modified Eagle's medium (DMEM) containing 4.5 g/L glucose, 50 U/mL penicillin, […], […], 2 mM L-glutamine, 10% (v/v) heat-inactivated fetal bovine serum with addition of 20 μL test compound in a serial dilution in the presence of final DMSO at 1% and 10 μL of 20 uM R848 in above DMEM, perform incubation under 37° C. in a CO2 incubator for 20 hrs. Then 20 μL of the supernatant from each well was incubated with 180 μL Quanti-blue substrate solution at 37° C. for 2 hrs and the absorbance was read at 620˜655 nm using a spectrophotometer. The signaling pathway that TLR7 activation leads to downstream NF-κB activation has been widely accepted, and therefore similar reporter assay was modified for evaluating TLR7 antagonist.
# CYP2C9 = molecular target: T2, CYP2C9 (Homo sapiens, UniProt P11712); assay: CYP inhibition assay in human liver microsome, CYP2C9; assay type: in vitro ADME; details: percentage inhibition, substrate Diclofenac 5 μM, <0: not or weak inhibitor
# T2 construct: tissue BD-Gentest 452117; host or cells: human liver microsomes
# T2 sequence (P11712 whole entry): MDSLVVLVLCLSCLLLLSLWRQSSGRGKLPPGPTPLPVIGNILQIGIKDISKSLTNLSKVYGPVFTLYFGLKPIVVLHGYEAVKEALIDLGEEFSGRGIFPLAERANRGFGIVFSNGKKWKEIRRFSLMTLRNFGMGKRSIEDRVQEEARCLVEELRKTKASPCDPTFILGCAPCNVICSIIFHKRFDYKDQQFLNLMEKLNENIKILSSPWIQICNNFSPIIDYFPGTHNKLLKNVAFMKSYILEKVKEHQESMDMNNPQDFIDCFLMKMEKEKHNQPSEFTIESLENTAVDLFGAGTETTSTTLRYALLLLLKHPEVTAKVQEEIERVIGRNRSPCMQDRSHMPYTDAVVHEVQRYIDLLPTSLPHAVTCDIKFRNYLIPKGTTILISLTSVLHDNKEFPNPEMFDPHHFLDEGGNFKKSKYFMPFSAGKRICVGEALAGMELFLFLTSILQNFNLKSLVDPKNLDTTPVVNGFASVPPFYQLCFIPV
# Description: (§1) This is a high throughput screening assay used for assessment of reversible inhibition of CYP2C9, CYP2D6, and CYP3A4 activity of test compounds in human liver microsome (HLM) in early discovery stage.
# (§2) Procedure 10 mM DMSO stock solutions of test compounds were diluted in DMSO to generate 2 mM intermediate stock solution. 250 nL of intermediate stock solution were transferred in duplicate into 3 separate 384 well microtitre plates (assay-ready plates). A mixture of HLM and each substrate was made up. 45 μL of HLM substrate mix was then transferred to each well of an assay ready plate and mixed. The negative (solvent) and positive controls (standard inhibitor for each CYP) were included in each assay ready plate. The assay ready plate was warmed to 37° C. in an incubator over 10 minutes. 5 μL pre-warmed NADPH regenerating system was added to each incubation well to start the reaction. Final incubation volume was 50 μL. The assay plate then was placed back in the 37° C. incubator. After incubation (10 minutes for CYP2D6) for 5 minutes, incubates were quenched by addition of 50 μL 100% acetonitrile containing internal standards (400 ng/mL 13C6-4′-OH-Diclofenac, 20 ng/mL D3-Dextrorphan and 20 ng/mL D4-1′OH-Midazolam). The supernatants were collected for RapidFire/MS/MS analysis.
# (§3) RapidFire online solid phase extraction/sample injection system (Agilent) coupled with API4000 triple quadrupole mass spectrometer (AB Sciex) were used for sample analysis. The mobile phase composed of acetonitrile and water supplemented with 0.1% formic acid. A C4 solid phase extraction cartridge is used for sample separation. MS detection is achieved in positive ion MRM mode.
# (§4) Data analysis Peak areas for substrate, metabolite and internal standard are determined using the RapidFire integrator software (version 3.6.12009.12296). Peak area ratios (PAR) of metabolite and internal standard (stable-labelled metabolite) are then calculated. The measurement window for each experiment is then defined: PAR (0% activity)=average PAR for all incubations containing concentrated inhibitor; Par (100% activity)=average PAR for all incubations containing no inhibitor (DMSO controls); % Activity (test inhibitor)=[PAR (test inhibitor)-PAR (0% activity)]/[PAR (100% activity)-PAR (0% activity)]; % Inhibition (test inhibitor)=100-% Activity (test inhibitor).
# CYP2D6 = molecular target: T3, CYP2D6 (Homo sapiens, UniProt P10635); assay: CYP inhibition assay in human liver microsome, CYP2D6; assay type: in vitro ADME; details: percentage inhibition, substrate Dextromethorphan 5 μM, <0: not or weak inhibitor
# T3 construct: tissue BD-Gentest 452117; host or cells: human liver microsomes
# T3 sequence (P10635 whole entry): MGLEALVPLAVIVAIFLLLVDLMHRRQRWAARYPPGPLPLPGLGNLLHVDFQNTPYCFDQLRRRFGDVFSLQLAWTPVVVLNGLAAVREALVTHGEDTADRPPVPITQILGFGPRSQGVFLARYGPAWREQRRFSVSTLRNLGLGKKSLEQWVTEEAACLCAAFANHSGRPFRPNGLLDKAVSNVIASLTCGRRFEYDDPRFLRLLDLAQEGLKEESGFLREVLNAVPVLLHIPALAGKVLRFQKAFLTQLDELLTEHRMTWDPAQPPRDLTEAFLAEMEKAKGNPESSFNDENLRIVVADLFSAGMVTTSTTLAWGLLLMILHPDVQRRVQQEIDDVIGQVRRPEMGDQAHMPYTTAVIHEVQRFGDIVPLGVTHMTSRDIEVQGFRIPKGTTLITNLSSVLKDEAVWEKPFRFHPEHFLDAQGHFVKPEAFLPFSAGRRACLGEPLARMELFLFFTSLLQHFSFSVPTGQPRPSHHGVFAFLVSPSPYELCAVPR
# Description: as §1, §2, §3, §4
SMILES,IC50 (human TLR7),CYP (%) 2C9 (CYP2C9),CYP (%) 2D6 (CYP2D6)
"C[C@@H]1CN(c2ccc(C#N)n3nccc23)C[C@H](CN2CC3(C2)OCc2cc(N4CC5(CNCCO5)C4)ccc23)O1 [Example 7, 4-[(2R,6S)-2-methyl-6-[[6-(5-oxa-2,8-diazaspiro[3.5]nonan-2-yl)spiro[1H-isobenzofuran-3,3′-azetidine]-1′-yl]methyl]morpholin-4-yl]pyrazolo[1,5-a]pyridine-7-carbonitrile]",15 nM,0%,−2%
"[2H]c1ccc2c(N3C[C@H](CN4CC5(C4)OCc4cc(N6C[C@H]7NCCO[C@@H]7C6)ccc45)O[C@H](C)C3)ccc(C#N)c2n1 [Example 17, 5-[(2S,6R)-2-[[6-[(4aR,7aR)-3,4,4a,5,7,7a-hexahydro-2H-pyrrolo[3,4-b][1,4]oxazin-6-yl]spiro[1H-isobenzofuran-3,3′-azetidine]-1′-yl]methyl]-6-methyl-morpholin-4-yl]-2-deuterio-quinoline-8-carbonitrile]",15 nM,3.5%,18.5%
"[2H]c1ccc2c(N3C[C@H](CN4CC5(C4)OCc4cc(N6CC(N)C6)cnc45)O[C@H](C)C3)ccc(C#N)c2n1 [Example 20, 5-[(2S,6R)-2-[[3-(3-aminoazetidin-1-yl)spiro[5H-furo[3,4-b]pyridine-7,3′-azetidine]-1′-yl]methyl]-6-methyl-morpholin-4-yl]-2-deuterio-quinoline-8-carbonitrile]",9 nM,13.5%,13%
"[2H]c1ccc2c(N3C[C@H](CN4CC5(C4)OCc4cc(N6CC(C)(N)C6)cnc45)O[C@H](C)C3)ccc(C#N)c2n1 [Example 21, 5-[(2S,6R)-2-[[3-(3-amino-3-methyl-azetidin-1-yl)spiro[5H-furo[3,4-b]pyridine-7,3′-azetidine]-1′-yl]methyl]-6-methyl-morpholin-4-yl]-2-deuterio-quinoline-8-carbonitrile]",7 nM,4.5%,5%
"C[C@@H]1CN(c2ccc(C#N)n3ncc(F)c23)C[C@H](CN2CC3(C2)OCc2cc(N4CC(C)(N)C4)ncc23)O1 [Example 24, 4-[(2S,6R)-2-[[6-(3-amino-3-methyl-azetidin-1-yl)spiro[1H-furo[3,4-c]pyridine-3,3′-azetidine]-1′-yl]methyl]-6-methyl-morpholin-4-yl]-3-fluoro-pyrazolo[1,5-a]pyridine-7-carbonitrile]",16 nM,21%,3.5%
"[2H]c1ccc2c(N3C[C@H](CN4CC5(C4)OCc4cc(N6C[C@@H](N)[C@H](OC)C6)cnc45)O[C@H](C)C3)ccc(C#N)c2n1 [Example 31, 5-[(2S,6R)-2-[[3-[(3R,4R)-3-amino-4-methoxy-pyrrolidin-1-yl]spiro[5H-furo[3,4-b]pyridine-7,3′-azetidine]-1′-yl]methyl]-6-methyl-morpholin-4-yl]-2-deuterio-quinoline-8-carbonitrile]",7 nM,–,–
"[2H]c1ccc2c(N3C[C@H](CN4CC5(C4)OCc4cc(N6CC(N)C6)ncc45)O[C@H](C)C3)ccc(C#N)c2n1 [Example 32, 5-[(2S,6R)-2-[[6-(3-aminoazetidin-1-yl)spiro[1H-furo[3,4-c]pyridine-3,3′-azetidine]-1′-yl]methyl]-6-methyl-morpholin-4-yl]-2-deuterio-quinoline-8-carbonitrile]",4 nM,–,–
"C[C@@H]1CN(c2ccc(C#N)n3ncc(F)c23)C[C@H](CN2CC3(C2)OCc2cc(N4CC(C)(N)C4)cnc23)O1 [Example 33, 4-[(2S,6R)-2-[[3-(3-amino-3-methyl-azetidin-1-yl)spiro[5H-furo[3,4-b]pyridine-7,3′-azetidine]-1′-yl]methyl]-6-methyl-morpholin-4-yl]-3-fluoro-pyrazolo[1,5-a]pyridine-7-carbonitrile]",13 nM,–,–
